Read-outs that look alike come from different tables or passages of the source.
How the values were obtained:
MLK1 = MLK1 (Homo sapiens, UniProt P80192); assay: KINOMEscan binding assay; conditions: read-out: % Ctrl @ 10000 nM
PAK2 = PAK2 (Homo sapiens, UniProt Q13177); assay: KINOMEscan binding assay; conditions: read-out: % Ctrl @ 10000 nM
SGK3 = SGK3 (Homo sapiens, UniProt Q96BR1); assay: KINOMEscan binding assay; conditions: read-out: % Ctrl @ 10000 nM
TEC = TEC (Homo sapiens, UniProt P42680); assay: KINOMEscan binding assay; conditions: read-out: % Ctrl @ 10000 nM
[1] = Pharmacokinetics in male CD-1 mice; assay type: in vivo; conditions: for AUCex: percent of AUC0-inf that is extrapolated; for AUC(0-t): male, CD-1, mouse; for AUC(0-t) / bioavailability / Cmax / Tmax / half-life / AUC(0-inf) / clearance / Vd / CL/F / Vd/F: plasma; for bioavailability / Cmax / Tmax / half-life / AUC(0-inf) / clearance / Vd / CL/F / Vd/F: mouse; for bioavailability: read-out: F (oral bioavailability); for AUC(0-inf) / clearance / Vd / CL/F / Vd/F: predicted; for Vd: read-out: Vz; for Vd/F: read-out: Vz/F
Description: Six groups of male CD-1 mice of approximately 25-35 g (about 8 weeks of age) were dosed with Comparative compound 324 and Compound A intravenously (IV) (in 10% DMSO:90% Hydroxypropyl-β-cyclodextrin (20% aq. w/v)) or orally (PO) (in 0.5% w/v methylcelluose (aq.) according to the regimen shown in Table 6.
Intravenous doses was administered into a tail vein at a constant dose volume of 5 mL/kg to achieve a dose level of 3 mg/kg. Oral doses were administered as a single bolus dose via syringe with attached polypropylene gavage tube at a constant dose volume of 10 mL/kg to achieve dose levels of 3 mg/kg (groups 2 and 4) and 30 mg/kg (group 3 and 6).
Following dosing, blood samples were collected into individual K3EDTA tubes by cardiac puncture under terminal anaesthesia (isoflurane) from 3 animals per timepoint. Following collection animal were sacrificed by cervical dislocation. Samples were taken at 5, 15 and 30 minutes and then 1, 2, 4, 8 and 24 hours post-IV dose and 15 and 30 minutes and then 1, 2, 4, 8 and 24 hours post-OP dose.
Upon collection, blood samples were centrifuged at 10,000×g, 2 minutes at 4° C. and the resultant plasma was drawn off and stored at −20° C. for analysis by LC-MS/MS of the concentration of the compounds. The remaining blood call pellet was discarded.
Pharmacokinetic parameters were derived by non-compartmental analysis (linear/logarithmic trapezoidal) using WinNonlin (Version 4.1 or higher) software.

PRKR = PRKR (Homo sapiens, UniProt P19525); assay: KINOMEscan binding assay; conditions: read-out: % Ctrl @ 10000 nM
[2] = molecular target: RSK4 Kin.Dom.2-C-terminal (Homo sapiens, UniProt Q9UK32); assay: KINOMEscan binding assay; conditions: read-out: % Ctrl @ 10000 nM
MAP3K1 = molecular target: T1, MAP3K1 (Homo sapiens, UniProt Q13233); assay: KINOMEscan binding assay; conditions: read-out: % Ctrl @ 10000 nM
T1 construct: T7 phage fusion (most assays) or DNA label after HEK293 expression; purchased DiscoveRx (KINOMEscan, LeadHunter Discovery services); host or cells: T7 phage in E. coli (BL21-derived) or HEK293
T1 sequence (Q13233 whole entry, the tested form may be a part): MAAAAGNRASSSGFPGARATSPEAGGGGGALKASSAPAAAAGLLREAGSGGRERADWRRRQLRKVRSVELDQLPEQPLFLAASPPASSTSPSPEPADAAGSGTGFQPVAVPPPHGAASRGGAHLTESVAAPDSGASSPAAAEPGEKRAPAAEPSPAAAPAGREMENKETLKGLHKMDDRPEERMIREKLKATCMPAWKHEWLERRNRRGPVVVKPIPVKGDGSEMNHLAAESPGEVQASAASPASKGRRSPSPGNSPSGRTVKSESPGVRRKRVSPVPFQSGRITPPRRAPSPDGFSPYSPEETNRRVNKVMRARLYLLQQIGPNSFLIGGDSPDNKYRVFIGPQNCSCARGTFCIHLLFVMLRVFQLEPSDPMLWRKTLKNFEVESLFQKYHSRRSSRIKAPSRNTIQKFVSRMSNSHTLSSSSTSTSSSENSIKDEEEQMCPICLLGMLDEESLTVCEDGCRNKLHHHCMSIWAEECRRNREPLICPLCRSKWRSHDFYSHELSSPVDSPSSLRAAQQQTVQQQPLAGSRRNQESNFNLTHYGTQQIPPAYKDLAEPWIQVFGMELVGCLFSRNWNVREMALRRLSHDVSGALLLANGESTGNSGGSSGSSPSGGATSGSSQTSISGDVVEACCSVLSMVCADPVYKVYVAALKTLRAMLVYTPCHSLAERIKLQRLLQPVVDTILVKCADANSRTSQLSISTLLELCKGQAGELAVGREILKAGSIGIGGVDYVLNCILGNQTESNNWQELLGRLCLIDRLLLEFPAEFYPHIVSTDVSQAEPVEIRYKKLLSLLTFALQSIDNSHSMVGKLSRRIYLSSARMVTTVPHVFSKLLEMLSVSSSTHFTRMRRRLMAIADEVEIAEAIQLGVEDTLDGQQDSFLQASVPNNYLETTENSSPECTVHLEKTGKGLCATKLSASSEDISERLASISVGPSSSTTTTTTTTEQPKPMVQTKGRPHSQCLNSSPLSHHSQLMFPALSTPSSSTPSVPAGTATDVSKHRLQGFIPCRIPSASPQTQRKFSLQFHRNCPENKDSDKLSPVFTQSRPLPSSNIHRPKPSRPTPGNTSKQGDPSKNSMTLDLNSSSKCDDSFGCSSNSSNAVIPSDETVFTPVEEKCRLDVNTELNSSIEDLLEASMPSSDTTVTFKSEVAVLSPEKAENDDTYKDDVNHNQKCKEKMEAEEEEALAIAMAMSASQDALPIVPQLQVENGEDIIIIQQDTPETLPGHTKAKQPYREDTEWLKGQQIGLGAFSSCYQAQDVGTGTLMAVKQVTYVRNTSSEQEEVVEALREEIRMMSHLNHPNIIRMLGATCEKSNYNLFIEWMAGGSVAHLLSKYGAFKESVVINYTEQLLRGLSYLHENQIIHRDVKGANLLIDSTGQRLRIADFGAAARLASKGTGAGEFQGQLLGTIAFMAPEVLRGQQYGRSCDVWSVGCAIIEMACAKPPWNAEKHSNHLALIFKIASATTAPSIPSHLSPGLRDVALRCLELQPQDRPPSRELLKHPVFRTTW

AKT3 = AKT3 (Homo sapiens, UniProt Q9Y243); assay: KINOMEscan binding assay; conditions: read-out: % Ctrl @ 10000 nM
[3] = molecular target: RSK4 Kin.Dom.1-N-terminal (Homo sapiens, UniProt Q9UK32); assay: KINOMEscan binding assay; conditions: read-out: % Ctrl @ 10000 nM
MST3 = MST3 (Homo sapiens, UniProt Q9Y6E0); assay: KINOMEscan binding assay; conditions: read-out: % Ctrl @ 10000 nM
[4] = molecular target: RSK1 Kin.Dom.2-C-terminal (Homo sapiens, UniProt Q15418); assay: KINOMEscan binding assay; conditions: read-out: % Ctrl @ 10000 nM
Sequence of RSK1 Kin.Dom.2-C-terminal (Q15418 418-675 limits assumed): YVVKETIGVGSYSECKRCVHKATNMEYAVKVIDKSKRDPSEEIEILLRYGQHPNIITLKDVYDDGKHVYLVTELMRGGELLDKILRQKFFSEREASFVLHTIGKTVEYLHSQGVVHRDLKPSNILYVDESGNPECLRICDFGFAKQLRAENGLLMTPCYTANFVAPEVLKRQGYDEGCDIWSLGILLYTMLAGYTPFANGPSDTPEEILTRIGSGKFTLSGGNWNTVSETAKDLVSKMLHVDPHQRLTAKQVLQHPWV

[5] = molecular target: JAK1 (JH1domain-catalytic) (Homo sapiens, UniProt P23458); assay: KINOMEscan binding assay; conditions: read-out: % Ctrl @ 10000 nM
ALK (C1156Y) = ALK (C1156Y) (Homo sapiens, UniProt Q9UM73, C1156Y); assay: KINOMEscan binding assay; conditions: read-out: % Ctrl @ 10000 nM
Sequence of ALK (C1156Y) (Q9UM73 19-1620 C1156Y): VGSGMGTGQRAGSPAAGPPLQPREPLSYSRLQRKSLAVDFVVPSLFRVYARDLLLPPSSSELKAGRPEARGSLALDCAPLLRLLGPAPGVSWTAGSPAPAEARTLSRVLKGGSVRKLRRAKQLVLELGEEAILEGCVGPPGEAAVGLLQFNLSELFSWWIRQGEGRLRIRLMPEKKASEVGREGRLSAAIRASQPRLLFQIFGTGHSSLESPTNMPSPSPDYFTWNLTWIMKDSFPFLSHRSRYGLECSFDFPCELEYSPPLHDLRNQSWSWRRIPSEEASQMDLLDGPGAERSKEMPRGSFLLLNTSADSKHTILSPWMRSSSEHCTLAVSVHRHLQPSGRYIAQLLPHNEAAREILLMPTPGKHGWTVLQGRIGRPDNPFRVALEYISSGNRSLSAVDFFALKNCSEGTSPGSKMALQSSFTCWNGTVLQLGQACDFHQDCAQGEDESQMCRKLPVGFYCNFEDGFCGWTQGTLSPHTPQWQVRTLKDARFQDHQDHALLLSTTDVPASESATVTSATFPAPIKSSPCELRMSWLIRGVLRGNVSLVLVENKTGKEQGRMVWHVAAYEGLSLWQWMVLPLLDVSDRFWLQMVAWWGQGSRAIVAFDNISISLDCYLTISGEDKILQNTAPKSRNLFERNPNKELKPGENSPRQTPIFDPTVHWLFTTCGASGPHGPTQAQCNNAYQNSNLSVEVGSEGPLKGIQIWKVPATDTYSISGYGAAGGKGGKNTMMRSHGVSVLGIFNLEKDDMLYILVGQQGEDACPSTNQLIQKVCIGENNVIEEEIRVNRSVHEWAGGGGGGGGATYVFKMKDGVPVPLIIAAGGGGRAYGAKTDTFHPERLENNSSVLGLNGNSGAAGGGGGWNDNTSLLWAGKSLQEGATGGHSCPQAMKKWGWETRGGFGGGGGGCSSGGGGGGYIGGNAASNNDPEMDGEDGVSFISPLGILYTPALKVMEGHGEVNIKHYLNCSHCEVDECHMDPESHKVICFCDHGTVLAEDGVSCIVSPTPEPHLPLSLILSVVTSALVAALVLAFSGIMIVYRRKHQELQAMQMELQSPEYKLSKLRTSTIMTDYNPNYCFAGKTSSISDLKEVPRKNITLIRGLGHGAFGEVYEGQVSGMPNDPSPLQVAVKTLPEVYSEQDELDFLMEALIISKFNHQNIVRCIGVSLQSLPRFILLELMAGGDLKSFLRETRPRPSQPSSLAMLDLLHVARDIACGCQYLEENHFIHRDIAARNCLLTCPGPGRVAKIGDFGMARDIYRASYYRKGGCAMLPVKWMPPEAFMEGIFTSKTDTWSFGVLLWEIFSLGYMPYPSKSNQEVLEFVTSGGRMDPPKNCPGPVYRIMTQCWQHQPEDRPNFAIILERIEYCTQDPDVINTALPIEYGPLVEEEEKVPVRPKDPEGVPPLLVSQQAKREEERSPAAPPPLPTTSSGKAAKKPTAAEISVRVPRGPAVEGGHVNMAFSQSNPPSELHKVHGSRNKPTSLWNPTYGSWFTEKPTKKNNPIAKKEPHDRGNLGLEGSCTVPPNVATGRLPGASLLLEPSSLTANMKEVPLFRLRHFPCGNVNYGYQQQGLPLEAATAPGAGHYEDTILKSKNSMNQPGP

[6] = molecular target: T2, TYK2 JH2domain-pseudokinase (Homo sapiens, UniProt P29597); assay: KINOMEscan binding assay; conditions: read-out: % Ctrl @ 10000 nM
T2 construct: JH2domain-pseudokinase; purchased DiscoveRx (KINOMEscan, LeadHunter Discovery services)

AMPK-alpha1 = AMPK-alpha1 (Homo sapiens, UniProt Q13131); assay: KINOMEscan binding assay; conditions: read-out: % Ctrl @ 10000 nM
TRKB = TRKB (Homo sapiens, UniProt Q16620); assay: KINOMEscan binding assay; conditions: read-out: % Ctrl @ 10000 nM
MEK5 = MEK5 (Homo sapiens, UniProt Q13163); assay: KINOMEscan binding assay; conditions: read-out: % Ctrl @ 10000 nM
PAK1 = PAK1 (Homo sapiens, UniProt Q13153); assay: KINOMEscan binding assay; conditions: read-out: % Ctrl @ 10000 nM
CDK4-cyclinD3 = CDK4-cyclinD3 (Homo sapiens, UniProt P11802); assay: KINOMEscan binding assay; conditions: read-out: % Ctrl @ 10000 nM
Sequence of CDK4-cyclinD3 (P11802 whole entry): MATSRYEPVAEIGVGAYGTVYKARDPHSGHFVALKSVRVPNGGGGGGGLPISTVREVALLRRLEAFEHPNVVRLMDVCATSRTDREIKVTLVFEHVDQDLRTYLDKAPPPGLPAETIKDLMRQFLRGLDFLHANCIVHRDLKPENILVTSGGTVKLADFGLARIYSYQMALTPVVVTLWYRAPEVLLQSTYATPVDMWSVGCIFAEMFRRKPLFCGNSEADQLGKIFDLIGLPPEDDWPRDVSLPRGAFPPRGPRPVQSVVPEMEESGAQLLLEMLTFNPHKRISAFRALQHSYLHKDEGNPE
Sequence of CDK4-cyclinD3 (P30281 whole entry partner): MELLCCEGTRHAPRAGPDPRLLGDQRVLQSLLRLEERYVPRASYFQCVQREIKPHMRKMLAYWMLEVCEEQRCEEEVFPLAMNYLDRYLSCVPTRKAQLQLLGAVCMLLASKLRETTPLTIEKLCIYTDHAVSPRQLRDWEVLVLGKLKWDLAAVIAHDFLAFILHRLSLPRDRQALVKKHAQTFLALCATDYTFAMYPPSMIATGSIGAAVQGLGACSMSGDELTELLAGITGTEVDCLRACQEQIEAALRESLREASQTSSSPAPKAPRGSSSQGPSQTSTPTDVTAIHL

PIK3CB = PIK3CB (Homo sapiens, UniProt P42338); assay: KINOMEscan binding assay; conditions: read-out: % Ctrl @ 10000 nM
CDKL2 = CDKL2 (Homo sapiens, UniProt Q92772); assay: KINOMEscan binding assay; conditions: read-out: % Ctrl @ 10000 nM
STK33 = STK33 (Homo sapiens, UniProt Q9BYT3); assay: KINOMEscan binding assay; conditions: read-out: % Ctrl @ 10000 nM
MRCKB = MRCKB (Homo sapiens, UniProt Q9Y5S2); assay: KINOMEscan binding assay; conditions: read-out: % Ctrl @ 10000 nM
EPHA4 = EPHA4 (Homo sapiens, UniProt P54764); assay: KINOMEscan binding assay; conditions: read-out: % Ctrl @ 10000 nM
FLT3 (D835Y) = FLT3 (D835Y) (Homo sapiens, UniProt P36888, D835Y); assay: KINOMEscan binding assay; conditions: read-out: % Ctrl @ 10000 nM
MAP3K15 = molecular target: T3, MAP3K15 (Homo sapiens, UniProt Q6ZN16); assay: KINOMEscan binding assay; conditions: read-out: % Ctrl @ 10000 nM
T3 construct: T7 phage fusion (most assays) or DNA label after HEK293 expression; purchased DiscoveRx (KINOMEscan, LeadHunter Discovery services); host or cells: T7 phage in E. coli (BL21-derived) or HEK293

[7] = iv, 3 mg/kg, IV 3 mg/kg, male CD-1 mice, read-out: AUC0-24 h
[8] = iv, 3 mg/kg, IV 3 mg/kg, male CD-1 mice, read-out: AUC0-t
[9] = po, 3 mg/kg, PO 3 mg/kg, male CD-1 mice, read-out: AUC0-24 h
[10] = po, 3 mg/kg, PO 3 mg/kg, male CD-1 mice, read-out: AUC0-t
[11] = po, 30 mg/kg, PO 30 mg/kg, male CD-1 mice, read-out: AUC0-24 h
[12] = po, 30 mg/kg, PO 30 mg/kg, male CD-1 mice, read-out: AUC0-t

Sequence of MLK1 (P80192 whole entry): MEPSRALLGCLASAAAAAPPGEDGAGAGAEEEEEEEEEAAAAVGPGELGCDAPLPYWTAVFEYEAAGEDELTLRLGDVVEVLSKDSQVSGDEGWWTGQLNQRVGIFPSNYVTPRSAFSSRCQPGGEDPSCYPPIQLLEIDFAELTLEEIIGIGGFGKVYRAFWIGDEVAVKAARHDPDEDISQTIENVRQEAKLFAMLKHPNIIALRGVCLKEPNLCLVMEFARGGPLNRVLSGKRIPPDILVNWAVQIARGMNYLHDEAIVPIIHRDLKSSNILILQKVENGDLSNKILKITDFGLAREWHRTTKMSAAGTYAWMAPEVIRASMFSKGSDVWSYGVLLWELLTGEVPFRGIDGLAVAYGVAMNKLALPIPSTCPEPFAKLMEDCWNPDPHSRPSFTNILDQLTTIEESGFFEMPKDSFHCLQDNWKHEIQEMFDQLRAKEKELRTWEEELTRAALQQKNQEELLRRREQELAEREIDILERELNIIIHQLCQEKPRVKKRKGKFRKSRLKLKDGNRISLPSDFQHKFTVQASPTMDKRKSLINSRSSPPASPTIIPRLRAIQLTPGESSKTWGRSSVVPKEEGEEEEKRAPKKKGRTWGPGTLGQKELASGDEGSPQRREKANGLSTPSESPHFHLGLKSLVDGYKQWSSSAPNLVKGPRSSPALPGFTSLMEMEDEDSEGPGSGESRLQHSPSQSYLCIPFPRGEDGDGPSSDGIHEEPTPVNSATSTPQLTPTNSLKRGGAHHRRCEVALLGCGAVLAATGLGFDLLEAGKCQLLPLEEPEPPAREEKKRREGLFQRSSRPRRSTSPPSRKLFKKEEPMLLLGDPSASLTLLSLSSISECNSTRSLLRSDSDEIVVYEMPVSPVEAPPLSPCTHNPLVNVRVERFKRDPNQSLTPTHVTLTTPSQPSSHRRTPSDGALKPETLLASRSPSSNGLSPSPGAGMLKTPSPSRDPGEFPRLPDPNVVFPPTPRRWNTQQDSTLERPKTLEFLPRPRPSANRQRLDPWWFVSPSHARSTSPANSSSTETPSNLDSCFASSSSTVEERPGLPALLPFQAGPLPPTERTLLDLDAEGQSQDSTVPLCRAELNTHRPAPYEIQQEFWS

SMILES: Nc1ncc(-c2nc3ccccc3o2)c(-c2ccncc2)n1 [Comparative Compound 324, 5-(1,3-benzoxazol-2-yl)-4-(pyridine-4-yl)pyrimidin-2-amine]
- remaining binding at 10 µM (MLK1): 100%
- remaining binding at 10 µM (PAK2): 92%
- remaining binding at 10 µM (SGK3): 94%
- remaining binding at 10 µM (TEC): 94%
- AUCex ([1]; IV 3 mg/kg): 1.9%
- AUC(0-t) [1, 7]: 315 ng·h/mL
- AUC(0-t) [1, 8]: 304 ng·h/mL
- AUC(0-t) [1, 9]: 11.1 ng·h/mL
- AUC(0-t) [1, 10]: 8.66 ng·h/mL
- AUC(0-t) [1, 11]: 1590 ng·h/mL
- AUC(0-t) [1, 12]: 1210 ng·h/mL
- bioavailability ([1]; PO 3 mg/kg, male CD-1 mice): 3%
- bioavailability ([1]; PO 30 mg/kg, male CD-1 mice): 40%
- Cmax ([1]; IV 3 mg/kg, male CD-1 mice): 1150 ng/mL
- Tmax ([1]; IV 3 mg/kg, male CD-1 mice): 4.98 min
- half-life ([1]; IV 3 mg/kg, male CD-1 mice): 5.46 min
- AUC(0-inf) ([1]; IV 3 mg/kg, male CD-1 mice): 309 ng·h/mL
- clearance ([1]; IV 3 mg/kg, male CD-1 mice): 162 mL/min/kg
- Vd ([1]; IV 3 mg/kg, male CD-1 mice): 1.27 L/kg
- Cmax ([1]; PO 3 mg/kg, male CD-1 mice): 14 ng/mL
- Tmax ([1]; PO 3 mg/kg, male CD-1 mice): 15 min
- Cmax ([1]; PO 30 mg/kg, male CD-1 mice): 666 ng/mL
- Tmax ([1]; PO 30 mg/kg, male CD-1 mice): 30 min
- remaining binding at 10 µM (PRKR): 96%
- remaining binding at 10 µM [2]: 35%
- remaining binding at 10 µM (MAP3K1): 85%
- remaining binding at 10 µM (AKT3): 100%
- remaining binding at 10 µM [3]: 85%
- remaining binding at 10 µM (MST3): 98%
- remaining binding at 10 µM [4]: 44%
- remaining binding at 10 µM [5]: 88%
- remaining binding at 10 µM (ALK (C1156Y)): 100%
- remaining binding at 10 µM [6]: 66%
- remaining binding at 10 µM (AMPK-alpha1): 98%
- remaining binding at 10 µM (TRKB): 67%
- remaining binding at 10 µM (MEK5): 66%
- remaining binding at 10 µM (PAK1): 75%
- remaining binding at 10 µM (CDK4-cyclinD3): 100%
- remaining binding at 10 µM (PIK3CB): 100%
- remaining binding at 10 µM (CDKL2): 100%
- remaining binding at 10 µM (STK33): 77%
- remaining binding at 10 µM (MRCKB): 100%
- remaining binding at 10 µM (EPHA4): 100%
- remaining binding at 10 µM (FLT3 (D835Y)): 90%
- remaining binding at 10 µM (MAP3K15): 100%

SMILES: CNc1c(C(N)=O)c2ccccn2c1C(=O)c1ccc(F)cc1 [Compound A, 2-methyl-amino-3-[(4-fluorophenyl)carbonyl]indolizine-1-carboxamide]
- remaining binding at 10 µM (MLK1): 95%
- remaining binding at 10 µM (PAK2): 79%
- remaining binding at 10 µM (SGK3): 98%
- remaining binding at 10 µM (TEC): 88%
- AUCex ([1]; IV 3 mg/kg): 0.1%
- AUCex ([1]; PO 3 mg/kg): 6.3%
- AUCex ([1]; PO 30 mg/kg): 18.5%
- clearance after administration ([1]; male CD-1 mice, 24 hours after administration): completely cleared after 24 hours
- AUC(0-t) [1, 7]: 502 ng·h/mL
- AUC(0-t) [1, 8]: 498 ng·h/mL
- AUC(0-t) [1, 9]: 35.4 ng·h/mL
- AUC(0-t) [1, 10]: 32.4 ng·h/mL
- AUC(0-t) [1, 11]: 659 ng·h/mL
- AUC(0-t) [1, 12]: 470 ng·h/mL
- bioavailability ([1]; PO 3 mg/kg, male CD-1 mice): 7%
- bioavailability ([1]; PO 30 mg/kg, male CD-1 mice): 9%
- Cmax ([1]; IV 3 mg/kg, male CD-1 mice): 1680 ng/mL
- Tmax ([1]; IV 3 mg/kg, male CD-1 mice): 4.98 min
- half-life ([1]; IV 3 mg/kg, male CD-1 mice): 13.8 min
- AUC(0-inf) ([1]; IV 3 mg/kg, male CD-1 mice): 499 ng·h/mL
- clearance ([1]; IV 3 mg/kg, male CD-1 mice): 100 mL/min/kg
- Vd ([1]; IV 3 mg/kg, male CD-1 mice): 2 L/kg
- Cmax ([1]; PO 3 mg/kg, male CD-1 mice): 47 ng/mL
- Tmax ([1]; PO 3 mg/kg, male CD-1 mice): 15 min
- half-life ([1]; PO 3 mg/kg, male CD-1 mice): 29.4 min
- AUC(0-inf) ([1]; PO 3 mg/kg, male CD-1 mice): 34.6 ng·h/mL
- CL/F ([1]; PO 3 mg/kg, male CD-1 mice): 1450 mL/min/kg
- Vd/F ([1]; PO 3 mg/kg, male CD-1 mice): 61.4 L/kg
- Cmax ([1]; PO 30 mg/kg, male CD-1 mice): 237 ng/mL
- Tmax ([1]; PO 30 mg/kg, male CD-1 mice): 30 min
- half-life ([1]; PO 30 mg/kg, male CD-1 mice): 210 min
- AUC(0-inf) ([1]; PO 30 mg/kg, male CD-1 mice): 576 ng·h/mL
- CL/F ([1]; PO 30 mg/kg, male CD-1 mice): 868 mL/min/kg
- Vd/F ([1]; PO 30 mg/kg, male CD-1 mice): 264 L/kg
- remaining binding at 10 µM (PRKR): 90%
- remaining binding at 10 µM [2]: 6.6%
- remaining binding at 10 µM (MAP3K1): 76%
- remaining binding at 10 µM (AKT3): 100%
- remaining binding at 10 µM [3]: 64%
- remaining binding at 10 µM (MST3): 71%
- remaining binding at 10 µM [4]: 23%
- remaining binding at 10 µM [5]: 73%
- remaining binding at 10 µM (ALK (C1156Y)): 98%
- remaining binding at 10 µM [6]: 86%
- remaining binding at 10 µM (AMPK-alpha1): 91%
- remaining binding at 10 µM (TRKB): 76%
- remaining binding at 10 µM (MEK5): 51%
- remaining binding at 10 µM (PAK1): 71%
- remaining binding at 10 µM (CDK4-cyclinD3): 96%
- remaining binding at 10 µM (PIK3CB): 100%
- remaining binding at 10 µM (CDKL2): 85%
- remaining binding at 10 µM (STK33): 72%
- remaining binding at 10 µM (MRCKB): 100%
- remaining binding at 10 µM (EPHA4): 98%
- remaining binding at 10 µM (FLT3 (D835Y)): 94%
- remaining binding at 10 µM (MAP3K15): 94%
